In ChEMBL document CHEMBL1158447, “Substituted benzimidazoles: A novel chemotype for small molecule hKSP inhibitors” (Bioorg Med Chem Lett, 2009):
The source made the active and inactive calls. The calls are words filed in the database; no cut-off is given here.

Legend:
[1] = target: T1, Kinesin-like protein KIF11 (Homo sapiens, UniProt P52732); assay: Inhibition of human kinesin spindle protein by endpoint assay
T1 sequence (P52732 whole entry): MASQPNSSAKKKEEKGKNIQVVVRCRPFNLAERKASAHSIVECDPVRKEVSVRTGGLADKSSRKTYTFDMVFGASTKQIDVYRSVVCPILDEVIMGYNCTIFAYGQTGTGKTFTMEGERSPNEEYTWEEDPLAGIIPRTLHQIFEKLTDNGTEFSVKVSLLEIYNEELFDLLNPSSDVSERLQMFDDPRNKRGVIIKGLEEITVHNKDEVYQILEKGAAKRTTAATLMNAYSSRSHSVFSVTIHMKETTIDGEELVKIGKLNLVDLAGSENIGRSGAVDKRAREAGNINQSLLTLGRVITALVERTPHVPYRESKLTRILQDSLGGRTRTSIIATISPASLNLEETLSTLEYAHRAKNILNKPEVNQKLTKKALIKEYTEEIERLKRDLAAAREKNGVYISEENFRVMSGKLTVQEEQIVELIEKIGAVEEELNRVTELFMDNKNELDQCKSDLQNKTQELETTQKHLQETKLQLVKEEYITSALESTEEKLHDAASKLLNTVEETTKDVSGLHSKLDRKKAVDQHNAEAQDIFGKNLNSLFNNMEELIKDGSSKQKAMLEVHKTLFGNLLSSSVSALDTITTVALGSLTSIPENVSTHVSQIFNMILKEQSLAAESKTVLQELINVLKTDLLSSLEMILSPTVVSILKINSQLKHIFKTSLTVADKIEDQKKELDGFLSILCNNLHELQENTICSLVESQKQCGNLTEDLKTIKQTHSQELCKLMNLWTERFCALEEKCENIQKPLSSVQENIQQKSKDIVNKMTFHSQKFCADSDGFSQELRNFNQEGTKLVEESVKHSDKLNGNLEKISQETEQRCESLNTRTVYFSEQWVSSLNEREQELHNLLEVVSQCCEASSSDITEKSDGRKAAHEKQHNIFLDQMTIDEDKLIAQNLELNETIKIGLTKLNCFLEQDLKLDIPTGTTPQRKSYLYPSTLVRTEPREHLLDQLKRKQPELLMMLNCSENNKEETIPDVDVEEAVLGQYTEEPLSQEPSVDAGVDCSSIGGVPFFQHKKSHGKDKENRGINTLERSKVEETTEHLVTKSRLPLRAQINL

[2] = target: T2, Cytochrome P450 3A4 (Homo sapiens, UniProt P08684); assay: Inhibition of CYP3A4 coincubated with compound; type: ADME
[3] = target: T3, Cytochrome P450 2D6 (Homo sapiens, UniProt P10635); assay: Inhibition of CYP2D6 coincubated with compound; type: ADME
[4] = target: T4, Cytochrome P450 2C9 (Homo sapiens, UniProt P11712); assay: Inhibition of CYP2C9 coincubated with compound; type: ADME
[5] = Permeability across human Caco-2 cell membrane; type: ADME, cell-based; conditions: read-out: permeability
[6] = test system: Rattus norvegicus; assay: AUC in rat at 10 mg/kg after 6 hrs; type: ADME, organism-based, Plasma; design: time < 6 hr, dose 10 mg/kg; conditions: in vivo
[7] = target: T5, Kinesin-like protein KIF3B (Homo sapiens, UniProt O15066); assay: Inhibition of Kif3B
T5 sequence (O15066 whole entry): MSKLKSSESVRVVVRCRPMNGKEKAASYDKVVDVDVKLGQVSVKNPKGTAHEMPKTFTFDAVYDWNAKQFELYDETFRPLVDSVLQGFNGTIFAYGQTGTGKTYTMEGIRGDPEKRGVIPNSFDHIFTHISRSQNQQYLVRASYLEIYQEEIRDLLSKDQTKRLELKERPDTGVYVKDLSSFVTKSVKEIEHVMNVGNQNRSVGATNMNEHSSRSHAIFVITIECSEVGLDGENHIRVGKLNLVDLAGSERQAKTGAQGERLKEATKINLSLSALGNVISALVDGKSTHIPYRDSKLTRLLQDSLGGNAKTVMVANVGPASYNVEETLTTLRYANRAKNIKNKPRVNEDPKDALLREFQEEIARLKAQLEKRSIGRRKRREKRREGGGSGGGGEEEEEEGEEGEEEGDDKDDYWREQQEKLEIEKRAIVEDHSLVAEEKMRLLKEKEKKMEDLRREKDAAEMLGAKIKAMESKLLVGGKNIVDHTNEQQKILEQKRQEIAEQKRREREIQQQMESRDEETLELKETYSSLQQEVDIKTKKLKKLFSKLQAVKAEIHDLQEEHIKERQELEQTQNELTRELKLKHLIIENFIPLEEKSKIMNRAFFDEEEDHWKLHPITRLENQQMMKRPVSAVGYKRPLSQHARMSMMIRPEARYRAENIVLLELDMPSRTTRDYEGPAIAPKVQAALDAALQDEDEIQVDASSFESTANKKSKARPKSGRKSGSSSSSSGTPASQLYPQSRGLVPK

[8] = target: T6, Kinesin heavy chain isoform 5A (Homo sapiens, UniProt Q12840); assay: Inhibition of nKHC
T6 sequence (Q12840 whole entry): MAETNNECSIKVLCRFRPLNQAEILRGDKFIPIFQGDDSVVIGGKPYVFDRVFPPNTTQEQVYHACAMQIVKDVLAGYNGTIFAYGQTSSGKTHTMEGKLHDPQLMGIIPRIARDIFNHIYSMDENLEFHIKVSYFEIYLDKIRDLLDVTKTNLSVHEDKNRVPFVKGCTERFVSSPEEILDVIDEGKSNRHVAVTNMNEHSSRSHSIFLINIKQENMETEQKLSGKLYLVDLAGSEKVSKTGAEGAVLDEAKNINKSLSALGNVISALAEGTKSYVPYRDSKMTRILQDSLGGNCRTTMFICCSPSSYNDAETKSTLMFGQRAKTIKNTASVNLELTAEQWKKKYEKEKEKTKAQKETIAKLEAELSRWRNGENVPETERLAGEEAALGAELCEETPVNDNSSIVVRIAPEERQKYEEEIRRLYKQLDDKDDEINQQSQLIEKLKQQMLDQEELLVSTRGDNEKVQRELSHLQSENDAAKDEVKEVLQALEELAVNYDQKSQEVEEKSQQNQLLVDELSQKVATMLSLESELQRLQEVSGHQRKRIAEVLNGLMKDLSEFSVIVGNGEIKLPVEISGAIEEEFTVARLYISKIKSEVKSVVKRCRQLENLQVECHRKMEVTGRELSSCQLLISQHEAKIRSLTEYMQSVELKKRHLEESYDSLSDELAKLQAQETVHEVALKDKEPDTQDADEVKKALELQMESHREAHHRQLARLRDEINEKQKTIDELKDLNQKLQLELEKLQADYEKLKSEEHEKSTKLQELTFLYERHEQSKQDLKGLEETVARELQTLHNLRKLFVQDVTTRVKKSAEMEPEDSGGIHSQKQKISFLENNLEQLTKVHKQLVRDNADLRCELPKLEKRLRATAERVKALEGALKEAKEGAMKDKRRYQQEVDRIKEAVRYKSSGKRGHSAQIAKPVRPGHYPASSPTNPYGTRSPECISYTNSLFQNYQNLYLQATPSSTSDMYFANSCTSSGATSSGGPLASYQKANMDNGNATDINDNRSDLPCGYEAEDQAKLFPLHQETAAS

[9] = target: T2, Cytochrome P450 3A4; assay: Inhibition of CYP3A4 preincubated with compound; type: ADME
[10] = target: T3, Cytochrome P450 2D6; assay: Inhibition of CYP2D6 preincubated with compound; type: ADME
[11] = target: T4, Cytochrome P450 2C9; assay: Inhibition of CYP2C9 preincubated with compound; type: ADME
[12] = test system: A2780; assay: Antiproliferative activity against human A2780 cells after 48 hrs by Almar blue assay; type: functional, cell-based; conditions: A2780, 48 h
[13] = test system: A2780; assay: Antiproliferative activity against human A2780 cells assessed s occurrence of monostral phenotype at 25 uM after 48 hrs by Almar blue assay; type: functional, cell-based
[14] = target: Kinesin-like protein KIF11 (Homo sapiens) (UniProt P52732); assay: Selectivity for human KSP over HSET

T4 sequence (P11712 whole entry): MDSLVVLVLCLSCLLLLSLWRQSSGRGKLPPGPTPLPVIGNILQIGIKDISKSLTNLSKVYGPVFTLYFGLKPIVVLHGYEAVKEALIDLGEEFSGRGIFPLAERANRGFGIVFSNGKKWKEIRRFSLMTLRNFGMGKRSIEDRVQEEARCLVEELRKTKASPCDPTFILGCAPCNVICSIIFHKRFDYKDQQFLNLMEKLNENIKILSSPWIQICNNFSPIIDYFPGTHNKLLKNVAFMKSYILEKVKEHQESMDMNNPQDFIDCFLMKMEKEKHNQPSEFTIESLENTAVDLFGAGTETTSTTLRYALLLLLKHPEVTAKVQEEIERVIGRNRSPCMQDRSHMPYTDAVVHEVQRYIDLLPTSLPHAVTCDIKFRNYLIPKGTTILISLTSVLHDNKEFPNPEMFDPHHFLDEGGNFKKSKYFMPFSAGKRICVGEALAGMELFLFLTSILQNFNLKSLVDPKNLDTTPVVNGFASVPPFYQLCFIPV
T3 sequence (P10635 whole entry): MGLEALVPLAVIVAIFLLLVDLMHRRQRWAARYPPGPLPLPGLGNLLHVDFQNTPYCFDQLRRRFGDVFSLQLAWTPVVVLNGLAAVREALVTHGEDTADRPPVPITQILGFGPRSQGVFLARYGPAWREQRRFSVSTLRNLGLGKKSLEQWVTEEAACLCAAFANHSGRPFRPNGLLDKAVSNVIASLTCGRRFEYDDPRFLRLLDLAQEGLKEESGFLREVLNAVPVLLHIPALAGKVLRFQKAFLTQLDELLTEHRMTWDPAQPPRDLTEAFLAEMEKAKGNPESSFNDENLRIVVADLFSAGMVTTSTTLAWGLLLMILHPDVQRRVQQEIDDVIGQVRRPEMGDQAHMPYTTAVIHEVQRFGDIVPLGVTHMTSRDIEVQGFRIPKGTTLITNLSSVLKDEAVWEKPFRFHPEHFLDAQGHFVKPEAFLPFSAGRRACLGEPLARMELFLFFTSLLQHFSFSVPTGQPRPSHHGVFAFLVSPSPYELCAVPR
T2 sequence (P08684 whole entry): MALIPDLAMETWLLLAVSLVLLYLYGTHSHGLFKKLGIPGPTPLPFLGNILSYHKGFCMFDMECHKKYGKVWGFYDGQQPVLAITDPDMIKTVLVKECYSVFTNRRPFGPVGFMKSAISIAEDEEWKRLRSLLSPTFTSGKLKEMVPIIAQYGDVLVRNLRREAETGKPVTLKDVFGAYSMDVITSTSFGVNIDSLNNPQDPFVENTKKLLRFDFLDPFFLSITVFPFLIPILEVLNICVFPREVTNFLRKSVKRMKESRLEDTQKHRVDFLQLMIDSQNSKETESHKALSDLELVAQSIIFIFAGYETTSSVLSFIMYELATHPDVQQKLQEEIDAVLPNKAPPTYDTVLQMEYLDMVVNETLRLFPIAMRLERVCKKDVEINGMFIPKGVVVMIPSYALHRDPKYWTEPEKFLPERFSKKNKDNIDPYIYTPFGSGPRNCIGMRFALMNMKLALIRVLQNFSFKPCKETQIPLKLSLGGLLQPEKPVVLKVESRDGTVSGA

SMILES	IC50 [1] [nM]	IC50 [2] [µM]	IC50 [3] [µM]	IC50 [4] [µM]	Papp [5] [×10⁻⁶ cm/s]	AUC [6] [nM·h]	IC50 [7] [µM]	IC50 [8] [µM]	IC50 [9] [µM]	IC50 [10] [µM]	IC50 [11] [µM]	IC50 [12] [µM]	Activity [13]	fold change (FC) [14]
CS(=O)(=O)c1ccc(Nc2nc3cc(C(N)=O)ccc3n2Cc2ccccc2C(F)(F)F)cc1	4800	> 30	> 30	15	1.8	0	> 50	> 50	> 20	> 15	> 8			
CSc1ccc(Nc2nc3cc(C(N)=O)ccc3n2Cc2ccccc2C(F)(F)F)cc1	520	> 30	> 30	14	53	150	> 50	> 50	< 15	> 15	> 7	16	Active	8
COc1ccc(Nc2nc3cc(C(N)=O)ccc3n2Cc2ccccc2C(F)(F)F)cc1	2500	> 30	> 30	8	67	600	> 50	> 50	> 15	> 15	> 4	19	Active	
